Assay results as given in patent publication US20240408211A1, “COMPOSITIONS AND METHODS OF AMELIORATING AVERSIVENESS OF AVERSIVE STIMULI BY INHIBITION OF PURINERGIC RECEPTORS” (Monell Chemical Senses Center, priority 2021, published 2024).

Columns and labels:
[1] = system: C57BL/6J mice; assay: Brief-exposure gustometer lick test after oral swabbing (or IP injection) of briefly anesthetized mice; type: in vivo, mouse
Description: The methods were adapted from those described by Vandenbeuch et al [Vandenbeuch, A., et al., Postsynaptic P2X3-containing receptors in gustatory nerve fibres mediate responses to all taste qualities in mice. J Physiol 593:1113-1125; 2015] who, (a) in anesthetized mice, flowed AF-353 over the anterior tongue then recorded gustatory nerve responses to tastants [see also (Larson, E. D., et al., Function, innervation, and neurotransmitter signaling in mice lacking Type-II taste cells. eNeuro 7; 2020)] and (b), in awake mice, injected AF-353 intraperitoneally then measured licking for the sweetener SC-45647. Here, we applied AF-353 to the oral cavity of briefly anesthetized mice then measured licking using procedures similar to those of our past work [Med Associates inc. Products: Gustometry, med-associates.com/product/davis-rig-for-mouse-16-bottle/. 2022; Taruno, A., et al., CALHM1 ion channel mediates purinergic neurotransmission of sweet, bitter and umami tastes. Nature 495:223-226; 2013; Tordoff, M. G., et al., Normal taste acceptance and preference of PANX1 knockout mice. Chem. Senses 2015 May 18. pii: bjv025; 2015; Tordoff, M. G.; Aleman, T. R.; McCaughey, S. A. Heightened avidity for trisodium pyrophosphate in mice lacking Taslr3. Chem. Senses 40:53-59; 2014; Tordoff, M. G.; Ellis, H. T. Taste dysfunction in BTBR mice due to a mutation of Itpr3, the inositol triphosphate receptor 3 gene. Physiol. Genomics 45:834-855; 2013] and other investigators [Glendinning, J. I.; Gresack, J.; Spector, A. C. A high-throughput screening procedure for identifying mice with aberrant taste and oromotor function. Chem. Senses 27:461-474; 2002].
Groups of 16 male C57BL/6J mice aged 7 weeks old were purchased from The Jackson Laboratory (strain ID number 000664). They were maintained in a vivarium at 23° C. on a 12 h:12 h light/dark cycle, with lights off at 1800. When not being tested, mice were housed alone in plastic tub cages (26.5×17×12 cm) with a stainless-steel grid lid and wood chips scattered on the floor [see (Tordoff, M. G.; Bachmanov, A. A. Monell mouse taste phenotyping project. Monell Chemical Senses Center, monell.org/MMTPP. 2001) for details]. The mice ate pelleted chow (Teklad 8601) and drank deionized water according to the regimen described below. Each mouse was weighed daily, immediately before it was placed into a gustometer.
Brief-exposure taste acceptance was assessed using MS160-Mouse gustometers manufactured by DiLog Instruments (now available from Med Associates). Each gustometer consists of a 14.5×30×15 cm test chamber with a motorized shutter that controls access to a taste solution. Bottles of taste solution are mounted on a rack that is precisely positioned by a stepper motor so that any one of eight different taste solutions can be presented to the mouse. The drinking spout of each bottle is part of a high-frequency alternating current contact circuit, so that each lick the mouse makes is detected and recorded. Details of construction and other technical information are available elsewhere [Med Associates inc. Products: Gustometry, med-associates.com/product/davis-rig-for-mouse-16-bottle/. 2022; Sheridan, C. Merck stakes out ‘irritable’ neuron territory with $1.25 billion. Nature biotechnology 34:900; 2016].
To train the mice to sample taste solutions, they were first deprived of water for 22.5 h, and then placed into a gustometer with its shutter open. During this first training session, each mouse had continuous access to water for 30 min. It was then returned to its home cage and given water for 1 h. During the following two days, this procedure was repeated, except the shutter allowing access to water was closed 5 sec after each time the mouse began to lick, and was re-opened after a 7.5-sec interval. After 20 min, the mouse was returned to its home cage and given water for 1 h. By the second test using these procedures, nearly all mice had learned to obtain water during the 5-sec access periods. […]

[2] = cited from earlier work
[3] = system: rats; settings: cited from earlier work
[4] = system: P2X3/P2X2/3 receptors on bladder afferent nerves; settings: rats; cited from earlier work
[5] = system: chorda tympani nerve; settings: cited from earlier work
[6] = 0.3, 1 or 3 mM swabbed orally for 4 min versus vehicle
[7] = oral swabbing for 2, 4 or 8 min versus no swabbing

COc1cc(C(C)C)c(Oc2cnc(N)nc2N)cc1I [AF-353, 5-[5-iodo-4-methoxy-2-(1-methylethyl)phenoxy]-2,4-pyrimidinediamine]
licking for 1 mM QHCl, oral versus intraperitoneal administration of the same dose ([1]; 0.41 μmol/mouse): significantly more after AF-353 administered orally | licking for 1 mM QHCl versus DMSO vehicle ([1]; 0.41 μmol/mouse by oral swabbing or IP injection (either route)): licked significantly more | effect on licking for capsaicin (ANOVA) ([1]; 3 mM for 4 min): neither a main effect of AF-353 nor an AF-353× concentration interaction | licking of the hedonically positive tastant saccharin relative to DMSO vehicle ([1]; 3 mM for 4 min): licked less | licking of hedonically negative tastants relative to DMSO vehicle ([1]; 3 mM for 4 min, all (QHCl, urea, denatonium, SOA, Tenofovir Alafenamide, Praziquantel, Ferroquine, citric acid) except NaCl and capsaicin): licked more | licking for 1 mM QHCl after oral treatment versus either vehicle ([1]; 3 mM in DMSO or alcohol+Tween): licked significantly more | influence of the vehicle composition (DMSO or alcohol+Tween) on licking rates ([1]; 3 mM oral swab, water or 1 mM QHCl): did not influence licking rates | lick rates for 1 mM QHCl compared with deionized water ([1]; 3 mM swabbed orally for 4 min): statistically indistinguishable | licking after oral swabbing relative to oral swabbing with DMSO vehicle (FIG. 4A) ([1]; 3 mM, 0.41 μmol/mouse, route experiment): reduced licking | 1 mM QHCl licking after 60-min interval relative to 10- and 30-min intervals ([1]; 3 mM, 4 min): significantly reduced | lick rates for 1 mM QHCl, 10-min versus 30-min swab-test interval ([1]; 3 mM, 4 min): no difference | effectiveness at 90 min after oral treatment ([1]; 3 mM, 4 min, 1 mM QHCl licking): completely dissipated | lick rates for water by swab-test interval ([1]; 3 mM, 4 min, interval 10, 30, 60 or 90 min): no effect | lick rate for 1 mM QHCl [1, 6]: concentration-related increase | lick rates for deionized water [1, 6]: no significant effects | Licks to water (mean ± SE licks made in 10-sec tests) ([1]; Capsaicin experiment, 3 mM oral swab): 50 ± 9 | Licks to water (mean ± SE licks made in 10-sec tests) ([1]; Citric acid experiment, 3 mM oral swab): 44 ± 4 | Licks to water (mean ± SE licks made in 10-sec tests) ([1]; Denatonium experiment, 3 mM oral swab): 53 ± 3 | Licks to water (mean ± SE licks made in 10-sec tests) ([1]; Ferroquine experiment, 3 mM oral swab): 47 ± 3 | Licks to water (mean ± SE licks made in 10-sec tests) ([1]; NaCl experiment, 3 mM oral swab): 57 ± 5 | Licks to water (mean ± SE licks made in 10-sec tests) ([1]; Praziquantel experiment, 3 mM oral swab): 52 ± 3 | Licks to water (mean ± SE licks made in 10-sec tests) ([1]; QHCl experiment, 3 mM oral swab): 56 ± 4 | Licks to water (mean ± SE licks made in 10-sec tests) ([1]; Saccharin experiment, 3 mM oral swab): 14 ± 2 | Licks to water (mean ± SE licks made in 10-sec tests) ([1]; Tenofovir experiment, 3 mM oral swab): 56 ± 2 | Licks to water (mean ± SE licks made in 10-sec tests) ([1]; Urea experiment, 3 mM oral swab): 43 ± 5 | lick rates for 1 mM QHCl [1, 7]: increased monotonically | lick rates for deionized water [1, 7]: reduced lick rates for deionized water significantly | half-life ([2]; in rat): 1.63 h | oral bioavailability ([2]; rat, in vivo, po): high | CNS penetration ([2]; rat, in vivo): good | pain caused by bone cancer [3]: attenuate | activity mediated by P2X3/P2X2/3 receptors on bladder afferent nerves [4]: counteracts | chorda tympani nerve responses elicited by orally applied taste stimuli ([5]; 1.0 or 1.1 mM flowed over the anterior tongue for 10 min, at 10 and 30 min after application): eliminated | chorda tympani nerve responses to all tastants ([5]; intraperitoneal injection, 6 mg/kg): abolished | decrease of chorda tympani nerve responses ([5]; intraperitoneal, 0.25 mg/kg): ~50%
